{"source": "paper PMC12705620", "about": "(Frontiers in Pharmacology, 2025)", "key": {"A. baumannii RUH875": {"tested_on": "A. baumannii RUH875", "assay": "Bactericidal (time-kill) kinetics", "assay_type": "cell-based, Acinetobacter baumannii", "conditions": "within 1 min at 3.75 µM", "experimental": "(§1) Time-kill kinetics were evaluated against S. aureus JAR060131 and A. baumannii RUH875. Mid-logarithmic phase bacterial cultures were diluted to a final concentration of 1 × 10^6 CFU/mL in PBS. Bacteria were incubated with 0.5-, 2-, and 4-fold the LC99.9. Assays were conducted in polypropylene tubes (Micronics) with a total volume of 500 µL. Control samples consisted of bacteria incubated in PBS alone. At 1, 5, 30, and 120 min, 50 µL samples were collected and immediately added to 50 µL of 0.05% (v/v) sodium polyanethol sulfonate (SPS; Sigma-Aldrich) in PBS to neutralize residual peptide activity ([Dankert et al., 1995]). Viable bacterial counts were determined by plating 10 µL of serial 10-fold dilutions onto BA plates. Colonies were counted after 24 h of incubation at 37 °C. All conditions were performed in triplicate."}, "S. aureus JAR060131": {"tested_on": "S. aureus JAR060131", "assay": "Bactericidal (time-kill) kinetics", "assay_type": "cell-based, Staphylococcus aureus", "conditions": "3.75 µM peptide, 1 × 10^6 CFU/mL", "experimental": "as §1"}, "[1]": {"tested_on": "S. aureus LUH14616 (MRSA)", "assay": "Ex vivo human skin wound infection model", "design": "species or system Staphylococcus aureus", "conditions": "200 µM topical, 4 h treatment, versus untreated control (Figure 4C), p < 0.001", "excerpt": "Human skin from 3 donors was obtained via the Residual Tissue Biobank of the Red Cross Hospital (Beverwijk, Netherlands). The use of these coded, post-operative residual tissue samples was approved by patients through the informed opt-out-plus protocol of the Red Cross Hospital Skin ([Code-of-Conduct-for-Health-Research, 2022]) and processed for an ex vivo wound infection model as described ([Dijksteel et al., 2020]). The Wounded skin grafts were sectioned into approximately 1 cm^2 samples using a sterile scalpel and were decontaminated by immersion in 70% ethanol for 30 min, followed by three PBS washes. Samples were placed dermis-down and wound-side-up on stainless steel grids with central indentations, positioned in 12-well plates, and cultured at the air–liquid interface in DMEM at 37 °C and 5% CO2. To confine reagents to the wound area, a resin barrier (OpalDam; Ultradent) was applied to the wounded area and polymerized using a hand-held UV light (Valo X) for 10 s. The wounds were then topically infected with 10 µL of S. aureus LUH14616 suspension of 1 × 10^7 CFU/mL (final dose: 1 × 10^5 CFU/graft) in PBS for 1 h, followed by topical application of 10 µL of peptide solution for 4 h. Chlorhexidine (0.5% (v/v) in 70% ethanol; Entick B.V.) and PBS were used as positive and negative controls, respectively. After treatment, tissue samples were transferred to polypropylene vials containing 1 mL PBS supplemented with 0.025% (v/v) SPS and a 7 mm stainless steel bead. Homogenization was performed using a MagnaLyser System (Roche) with three 30-s cycles at 7,000 rpm, with 30 s of cooling on ice between cycles. Homogenates were 10-fold serially diluted in PBS, and 100 µL aliquots were plated on BA plates. CFUs were enumerated after overnight incubation at 37 °C."}, "[2]": {"tested_on": "human keratinocytes and dermal fibroblasts", "assay": "Cytotoxicity summary over human skin cells", "assay_type": "cell-based", "conditions": "24 h", "experimental": "(§2) Cells (5 × 10^5 cells/mL) were seeded in 96-well plates (100 μL/well; Thermo Scientific) and allowed to adhere for 24 h. After adhesion, monolayers were exposed to two-fold serial dilutions of the tetrameric and reference peptides (final concentrations: 60–0.05 µM) in fresh DMEM containing 2% (v/v) FBS, and incubated for 24 h at 37 °C in a humidified 5% CO2 atmosphere. Cell viability was assessed using the water-soluble tetrazolium salt (WST-1; Roche) assay, and membrane integrity was measured using the lactate dehydrogenase (LDH) release assay (Abcam), following manufacturer instructions. Absorbance was measured using the Synergy H1 microplate reader (Biotek). Results are expressed as percentages relative to untreated control (for WST-1) and positive lysis control (for LDH) and all experiments were performed in triplicate."}, "[3]": {"tested_on": "HaCaT human keratinocytes", "assay": "Cytotoxicity (WST-1 and LDH)", "assay_type": "cell-based", "conditions": "24 h exposure, triplicate", "experimental": "as §2"}, "[4]": {"tested_on": "human skin fibroblast cells (BJ)", "assay": "Cytotoxicity (WST-1 and LDH)", "assay_type": "cell-based", "conditions": "24 h exposure, triplicate", "experimental": "as §2"}, "human erythrocytes": {"tested_on": "human erythrocytes", "assay": "Hemolytic activity", "assay_type": "cell-based", "conditions": "1% human erythrocytes in PBS, 45 min, 37 °C, absorbance 540 nm, 30% lysis threshold, peptides up to 60 µM, triplicate, single donor", "experimental": "Whole blood was collected from healthy volunteers after obtaining informed consent, using Vacuette EDTA tubes (Greiner Bio-One). […] For hemolytic assessment, 180 μL of the prepared erythrocyte suspension was mixed with 20 μL of serially diluted peptide solutions (ranging from 60 to 0.03 μM in PBS)."}, "[5]": {"conditions": "DMEM 2% FBS, concentration causing >30% membrane permeation"}, "[6]": {"conditions": "WST-1, concentration causing <70% metabolic activity"}}}
{"substance": "Ac-LKRVWKRVFKLLKRYWRQLKKPVR-NH2 (N-terminus and C-terminus assumed) [SAAP-148, reference compound]", "values": [{"measurement": "Log reduction in CFU", "setting": "A. baumannii RUH875", "result": "> 3", "unit": "log"}, {"measurement": "Time to complete killing", "setting": "S. aureus JAR060131", "result": "≤ 5", "unit": "min"}, {"measurement": "Reduction of bacterial load (CFU counts)", "setting": "[1]", "result": "significantly reduced bacterial load"}, {"measurement": "Cytotoxic thresholds, WST-1 and LDH", "setting": "[2]", "result": "1.88 to 3.75", "unit": "µM"}, {"measurement": "Cytotoxicity, LDH leakage", "setting": "[3]; [5]", "result": 3.75, "unit": "µM"}, {"measurement": "Cytotoxicity, Metabolic activity", "setting": "[3]; [6]", "result": 3.75, "unit": "µM"}, {"measurement": "Cytotoxicity, LDH leakage", "setting": "[4]; [5]", "result": 1.88, "unit": "µM"}, {"measurement": "Cytotoxicity, Metabolic activity", "setting": "[4]; [6]", "result": 3.75, "unit": "µM"}, {"measurement": "Hemolytic concentration (HC) < 30%", "setting": "human erythrocytes", "result": 0.47, "unit": "µM"}]}
